Test results taken from patent US10519152B2, “Compounds and their use in treating cancer” (AstraZeneca AB, priority 2017, dated 2019).

Biological target: T1, Estrogen Receptor (ERα) in MCF-7 human ductal carcinoma breast cell line (Homo sapiens, UniProt P03372)
T1 construct: endogenous in cells; host or cells: MCF-7
T1 sequence (P03372 1-595): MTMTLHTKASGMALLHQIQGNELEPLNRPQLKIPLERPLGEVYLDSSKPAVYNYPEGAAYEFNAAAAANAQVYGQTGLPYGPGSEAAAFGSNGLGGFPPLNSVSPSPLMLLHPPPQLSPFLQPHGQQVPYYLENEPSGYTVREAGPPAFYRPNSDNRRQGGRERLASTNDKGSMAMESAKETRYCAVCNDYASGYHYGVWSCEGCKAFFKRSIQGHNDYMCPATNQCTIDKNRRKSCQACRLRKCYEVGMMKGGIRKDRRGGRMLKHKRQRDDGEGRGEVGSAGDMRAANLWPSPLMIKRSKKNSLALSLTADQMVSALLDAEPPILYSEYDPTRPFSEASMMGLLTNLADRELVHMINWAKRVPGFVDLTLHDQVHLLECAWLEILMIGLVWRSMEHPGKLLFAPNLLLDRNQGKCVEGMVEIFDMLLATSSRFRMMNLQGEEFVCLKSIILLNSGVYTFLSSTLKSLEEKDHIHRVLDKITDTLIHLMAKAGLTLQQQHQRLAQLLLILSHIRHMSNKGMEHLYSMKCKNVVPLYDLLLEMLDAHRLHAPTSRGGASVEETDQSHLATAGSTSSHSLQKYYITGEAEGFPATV
Test: MCF-7 ER degradation assay (cell based immuno-fluorescence)
Details: MCF-7 cells; for ER degradation ≥ 90% at 0.3 μM: ER degradation by fulvestrant at 0.3 μM is defined as 100%; for DC50: 18-22 hours incubation, 50% reduction of ERα expression, single experiment or average of two or more, read-out: MCF-7 ER degradation IC50
Summary of the method: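 MCF-7 human ductal carcinoma breast cells were seeded at 3.75×10^4 cells per mL (40 μL per well) in 384 well plates with phenol red free DMEM containing 2 mM L-Glutamine and 5% (v/v) Charcoal/Dextran treated foetal calf serum. After overnight culture, compounds were acoustically dispensed, incubated 18-22 hours, then cells were formaldehyde-fixed and immunostained for ERα.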

Compound	ER degradation ≥ 90% at 0.3 μM	DC50 [nM]
Cc1ncsc1-c1ccc(CNC(=O)[C@@H]2C[C@@H](O)CN2C(=O)[C@@H](NC(=O)COCC(F)(F)COCCCOc2cc(F)c([C@@H]3c4[nH]c5ccccc5c4C[C@@H](C)N3CC(C)(C)F)c(F)c2)C(C)(C)C)cc1 [Example 125, (2S,4R)-1-((S)-2-(2-(3-(3-(3,5-Difluoro-4-((1R,3R)-2-(2-fluoro-2-methylpropyl)-3-methyl-2,3,4,9-tetrahydro-1H-pyrido[3,4-b]indol-1-yl)phenoxy)propoxy)-2,2-difluoropropoxy)acetamido)-3,3-dimethylbutanoyl)-4-hydroxy-N-(4-(4-methylthiazol-5-yl)benzyl)pyrrolidine-2-carboxamide]	••	0.7
Cc1ncsc1-c1ccc(CNC(=O)[C@@H]2C[C@@H](O)CN2C(=O)[C@@H](NC(=O)COCCCCCOCCCOc2cc(F)c([C@@H]3c4[nH]c5ccccc5c4C[C@@H](C)N3CC(C)(C)F)c(F)c2)C(C)(C)C)cc1 [Example 136, (2S,4R)-1-((S)-2-(2-((5-(3-(3,5-Difluoro-4-((1R,3R)-2-(2-fluoro-2-methylpropyl)-3-methyl-2,3,4,9-tetrahydro-1H-pyrido[3,4-b]indol-1-yl)phenoxy)propoxy)pentyl)oxy)acetamido)-3,3-dimethylbutanoyl)-4-hydroxy-N-(4-(4-methylthiazol-5-yl)benzyl)pyrrolidine-2-carboxamide]	••	1.1
Cc1ncsc1-c1ccc(CNC(=O)[C@@H]2C[C@@H](O)CN2C(=O)[C@@H](NC(=O)COCCOCCCCCOc2cc(F)c([C@@H]3c4[nH]c5ccccc5c4C[C@@H](C)N3CC(C)(F)F)c(F)c2)C(C)(C)C)cc1 [Example 166, (2S,4R)-1-((S)-2-(2-(2-((5-(4-((1R,3R)-2-(2,2-Difluoropropyl)-3-methyl-2,3,4,9-tetrahydro-1H-pyrido[3,4-b]indol-1-yl)-3,5-difluorophenoxy)pentyl)oxy)ethoxy)acetamido)-3,3-dimethylbutanoyl)-4-hydroxy-N-(4-(4-methylthiazol-5-yl)benzyl)pyrrolidine-2-carboxamide]	••	0.8
Cc1ncsc1-c1ccc(CNC(=O)[C@@H]2C[C@@H](O)CN2C(=O)[C@@H](NC(=O)COCCOc2ccc(COc3cc(F)c([C@@H]4c5[nH]c6ccccc6c5C[C@@H](C)N4CC(C)(C)F)c(F)c3)cc2)C(C)(C)C)cc1 [Example 5, (2S,4R)-1-((S)-2-(2-(2-(4-((3,5-Difluoro-4-((1R,3R)-2-(2-fluoro-2-methylpropyl)-3-methyl-2,3,4,9-tetrahydro-1H-pyrido[3,4-b]indol-1-yl)phenoxy)methyl)phenoxy)ethoxy)acetamido)-3,3-dimethylbutanoyl)-4-hydroxy-N-(4-(4-methylthiazol-5-yl)benzyl)pyrrolidine-2-carboxamide]	•	2.6
Cc1ncsc1-c1ccc(CNC(=O)[C@@H]2C[C@@H](O)CN2C(=O)[C@@H](NC(=O)COCc2cccc(COc3cc(F)c([C@@H]4c5[nH]c6ccccc6c5C[C@@H](C)N4CC(C)(C)F)c(F)c3)n2)C(C)(C)C)cc1 [Example 132, (2S,4R)-1-((S)-2-(2-((6-((3,5-Difluoro-4-((1R,3R)-2-(2-fluoro-2-methylpropyl)-3-methyl-2,3,4,9-tetrahydro-1H-pyrido[3,4-b]indol-1-yl)phenoxy)methyl)pyridin-2-yl)methoxy)acetamido)-3,3-dimethylbutanoyl)-4-hydroxy-N-(4-(4-methylthiazol-5-yl)benzyl)pyrrolidine-2-carboxamide]	•	0.6
